Test results published in patent publication US20250276993A1, “PSEUDO-DISACCHARIDE COMPOUNDS” (UNIVERSITEIT LEIDEN, priority 2022, published 2025).

Legend:
[1] = target: T1, rHPSE (Homo sapiens, UniProt Q9Y251); assay: in-gel competitive ABPP, recombinant HPSE; assay type: biochemical; settings: apparent IC50, in-gel competitive ABPP-based assay; read-out: In vitro IC50 rHPSE
T1 sequence (Q9Y251 36-109 limits assumed): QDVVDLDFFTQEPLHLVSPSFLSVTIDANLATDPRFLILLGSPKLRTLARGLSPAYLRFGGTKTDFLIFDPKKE
T1 sequence (Q9Y251 158-543 limits assumed): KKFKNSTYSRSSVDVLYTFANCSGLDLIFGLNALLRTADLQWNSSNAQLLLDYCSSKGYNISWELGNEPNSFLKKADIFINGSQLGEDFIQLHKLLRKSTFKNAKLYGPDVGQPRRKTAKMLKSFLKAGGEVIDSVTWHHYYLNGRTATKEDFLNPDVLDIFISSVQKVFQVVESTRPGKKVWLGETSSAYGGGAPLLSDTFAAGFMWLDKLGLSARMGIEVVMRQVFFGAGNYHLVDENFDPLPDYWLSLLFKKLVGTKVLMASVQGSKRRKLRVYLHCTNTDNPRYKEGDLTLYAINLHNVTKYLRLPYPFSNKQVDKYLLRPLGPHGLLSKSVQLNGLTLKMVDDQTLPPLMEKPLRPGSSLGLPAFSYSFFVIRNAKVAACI
Protocol: ABP labelling reactions were carried out in Mcllvaine buffer (pH 5.5), 300 mM NaCl. For recombinant proteins 200 fmol of EcGH2, BpHep, AcGH79, HPSE or proHPSE was used (20 nM in 10 μl final reaction volume). For labeling cell lysates, 4-20 μg total protein was used. Labeling reactions were initiated by the addition of ABP compounds 7, 8 or 9 to a final concentration of 100 nM (unless otherwise specified), before incubation for 30 min at 37° C. with shaking. Following labeling, samples were denatured by boiling with Laemmli buffer for 5 min and resolved by SDS-PAGE. Gels were scanned using Typhoon-5 laser scanner platform (Cytiva), using the λEX 635 nm laser and 670BP30 emission filter. For competitive ABPP (cABPP) experiments, protein mixtures were preincubated with inhibitor (or buffer only control) for 1 h at 37° C. with shaking, before the addition of 7 to a final concentration of 100 nM, and subsequent incubation for 30 min at 37° C. with shaking. SDS-PAGE and analysis steps were carried out as above. For quantitative measurements, fluorescently labeled band intensities were calculated using Imagequant (Cytiva), and normalized to the corresponding band in the inhibitor free control lane. cABPP plots were prepared and analyzed using SigmaPlot 14.0 (Systat).
Competitive activity of compounds 2, 12 and 13 were investigated using cABPP Assay 2.
To gain insight into HPSE structure-activity relationships, apparent HPSE inhibition was tested for cyclitol 12, its disaccharidic analogue 13 and parent HPSE inhibitor 2 (FIG. 7a). […] Conversely, 13 could inactivate rHPSE down to 2 μM inhibitor concentration similar to 2.

[2] = tested on: B16-BL6 melanoma cells; assay: B16 melanoma experimental lung metastasis model; assay type: in vivo, C57BL/J6 mice; settings: after 14 days; 2: 300 nmol/mouse i.p.; SST0001: 150 μg/mouse i.p.; vs PBS-only control
Protocol: B16 melanoma—Twenty minutes before tumor cell inoculation, C57BL/J6 mice (n=5) were injected intraperitoneally with vehicle alone (PBS), compound 2 (300 nmol/mouse), or SST0001 (150 μg/mouse). Mice were subsequently intravenously inoculated with 1.5×10^5 B16-BL6 melanoma cells/mouse in a volume of 100 μL, alongside 20 μM 2 or 10 μg SST0001. Mice were sacrificed after 14 days and the lungs were dissected, photographed and evaluated for the number of metastatic foci/lung.
The compounds of the invention were tested against a B16 murine melanoma experimental metastasis model, which measures the formation of metastatic lung tumors by B16 cancer cells after intravenous (i.v.) injection. Additionally, the compounds of the invention were tested against a second cancer model—4T1 murine mammary carcinoma, which also metastasizes to the lungs upon injection.

[3] = tested on: 4T1 mouse mammary carcinoma cells; assay: 4T1 breast cancer lung metastasis model; assay type: in vivo, Balb/c mice; settings: 2: 300 nmol/mouse i.p.; SST0001: 150 μg/mouse i.p.; bioluminescence, 14 day timepoint
Protocol: 4T1 breast cancer—Twenty minutes before tumor cell inoculation, Balb/c mice (n=5) were injected intraperitoneally with vehicle alone (PBS), compound 2 (300 nmol/mouse), or SST0001 (150 μg/mouse). Mice were subsequently intravenously inoculated with 1.5×10^5 luciferase tagged 4T1 mouse mammary carcinoma cells/mouse in a volume of 100 μL, alongside 20 μM 2 or 10 μg SST0001.
Bioluminescence imaging of lung metastases produced by luciferase-expressing 4T1 cells was carried out using a highly sensitive, cooled charge-coupled device camera assembled in a specimen box (IVIS; Xenogen Corp, Hopkinton, MA). For this, the tumor-bearing mice were intraperitoneally administered with a luciferase substrate D-luciferin at a dose of 150 mg/kg body weight. The mice were anesthetized and kept in a camera box followed by continuous exposure to isoflurane (EZAnesthesia, Palmer, PA, USA). The tumor burden was quantified using Living Image software (Xenogen) (U. Barash et al., Journal of the National Cancer Institute 110, 1102-1114, 2018; M. Weissmann et al., Proc Natl Acad Sci, 113, 704-709, 2016)
The compounds of the invention were tested against a B16 murine melanoma experimental metastasis model, which measures the formation of metastatic lung tumors by B16 cancer cells after intravenous (i.v.) injection. […]

[4] = target: T2, HPSE (Homo sapiens, UniProt Q9Y251); assay: X-ray crystallography, ligand soaking of HPSE crystals; settings: crystal soaking
T2 sequence (Q9Y251 36-109 limits assumed): T1 sequence (Q9Y251 36-109 limits assumed)
T2 sequence (Q9Y251 158-543 limits assumed): T1 sequence (Q9Y251 158-543 limits assumed)
Source text: Xray diffraction data were collected at 100 K at beamlines i03 (HPSE-2, HPSE-3, HPSE-4, EcGUSB-1, BpHep-3), i04 (AcGH79-2, BpHep-2) and i04-1 (Apo-AcGH79, AcGH79-1, AcGH79-3) of the Diamond Light Source UK. Reflections were autoprocessed using the XIA2 pipeline. Complexes were solved by directly refining against their unliganded structures where isomorphous, or else solved by molecular replacement with PHASER (search model PDB accessions: 5E98 (HPSE), 3VNY (AcGH79), 3K46 (EcGUSB), 5BWI (BpHep)). […] Ligand coordinates were built using jLigand. Diagrams were generated using PyMOL.
HPSE—Well diffracting crystals of HPSE were obtained by the sitting-drop vapor-diffusion method at 20° C. using a well solution containing 0.1 M MES pH 5.5, 0.1 M MgCl2, 17% (w/v) PEG 3350, and a protein to well solution ratio of 200 nl:500 nl. Crystals typically appeared after 1 week. Inhibitor ligand complexes were obtained by transferring HPSE crystals to drops of well solution supplemented with 25% (v/v) ethylene glycol and 1-5 mM inhibitor. Crystals were incubated with ligand for ˜2-4 h, then directly harvested and flash-cooled in LN2 for data collection.
To better understand the molecular basis of interaction between our inhibitors and their targets, we turned to X-ray crystallography, using ligand soaking to derivatize enzymes in crystallo.

CC(=O)NC1C(O)[C@H](O)C(CO)O[C@@H]1O[C@H]1C(O)C(O)[C@@H]2OC2C1C(=O)O (stereo partly drawn) [Compound 2, 4-O-(2-N-acetyl-2-deoxy-D-glucopyranosyl)-glucurono-cyclophellitol]
IC50 [1]: 300 ± 200 nM | lung metastases (B16) [2]: marked reduction in lung growths | incidence of lung metastases (4T1) [3]: marked reduction in the incidence of lung metastases | binding mode in HPSE active site cleft [4]: covalent linkages between their pseudo-anomeric carbons and the enzyme nucleophile Glu343
